The source of these data is PMC10977697 (PLOS ONE, 2024).

Where no end group is shown, it is not given here.

For the first assay, the system named is Lgr5ECD-Fc. The assay is classed as binding, human. As to conditions: ratio of signal for target protein over BSA background.
On to “GCASGYWWRMWFCKQDSDCLAGCVCGPNGFCG (also: bicyclic or more (positions not given here)) [Lgr5ECD-Fc EET I-II 15]”, for which the S/N is recorded as 14.1.
As to “GCAVYQVYCKQDSDCLAGCVCAVKFHCG (also: bicyclic or more (positions not given here)) [Lgr5ECD-Fc EET I-II 12]”, the S/N was 21.6.
On to “GCGFWWKYWFCKQDSDCLAGCVCGPNGFCG (also: bicyclic or more (positions not given here)) [Lgr5ECD-Fc EET I-II 20]”, for which the S/N worked out at 6.1.
For “GCGFWYMQWFCKQDSDCLAGCVCDPMGNCG (also: bicyclic or more (positions not given here)) [Lgr5ECD-Fc EET I-II 6]”, the S/N turned out to be 36.2.
The same measure, in the same setting: as for “GCGWWYRQWFCKQDSDCLAGCVCLETPECG (also: bicyclic or more (positions not given here)) [Lgr5ECD-Fc EET I-II 4]”, the figure is 40.2; as for “GCGYWFYEWFCKQDSDCLAGCVCDPNGFCG (also: bicyclic or more (positions not given here)) [Lgr5ECD-Fc EET I-II 11]”, 21.7; as for “GCGYWWKKWFCKQDSDCLAGCVCGPNSFCG (also: bicyclic or more (positions not given here)) [Lgr5ECD-Fc EET I-II 9]”, 29.2.
In the case of “GCGYWWKQWFCKQDSDCLAGCVCGPNGFCG (also: bicyclic or more (positions not given here)) [Lgr5ECD-Fc EET I-II 10]”, the S/N stood at 25.7.
For “GCGYWWRLWFCKQDSDCLAGCVCGPNGSCG (also: bicyclic or more (positions not given here)) [Lgr5ECD-Fc EET I-II 14]”, the S/N is given as 15.3.
Regarding “GCGYWWRTWFCKQDSDCLAGCVCGPNGFCG (also: bicyclic or more (positions not given here)) [Lgr5ECD-Fc EET I-II 13]”, the S/N was 17.1.
On the same count and under the same terms, as for “GCGYWWVQWFCKQDSDCLAGCVCGPNGFCD (also: bicyclic or more (positions not given here)) [Lgr5ECD-Fc EET I-II 17]”, the figure is 10.3.
“GCGYWYKQWFCKQDSDCLAGCVCGPNGFCG (also: bicyclic or more (positions not given here)) [Lgr5ECD-Fc EET I-II 8]”: the S/N was determined as 32.0.
On the same count and under the same terms, as for “GCGYWYLEWFCKQDSDCLAGCVCGPNGFCG (also: bicyclic or more (positions not given here)) [Lgr5ECD-Fc EET I-II 18]”, the figure is 9.9; as for “GCGYWYRIWFCKQDSDCLAGCVCGPNGFCG (also: bicyclic or more (positions not given here)) [Lgr5ECD-Fc EET I-II 3]”, 43.5.
In the case of “GCGYWYRVWFCKQDSDCLAGCVCQEPGPCG (also: bicyclic or more (positions not given here)) [Lgr5ECD-Fc EET I-II 2]”, the S/N is recorded as 44.3.
Consider “GCHEGYWWRQWFCKQDSDCLAGCVCGPNGFCG (also: bicyclic or more (positions not given here)) [Lgr5ECD-Fc EET I-II 16]”, for which the S/N worked out at 11.5.
As for “GCLFRNLRMACKQDSDCLAGCVCGPNGFCG (also: bicyclic or more (positions not given here)) [Lgr5ECD-Fc EET I-II 24]”, the S/N was found to be 13.9.
Turning to “GCLYLGWLCKQDSDCLAGCVCDYFWYCVHqS (bicyclic or more) [Lgr5ECD-Fc EET I-II 25]”, the S/N was 19.5.
Same read-out and setting: with “GCMNSYWYNQWFCKQDSDCLAGCVCGPNGFCG (also: bicyclic or more (positions not given here)) [Lgr5ECD-Fc EET I-II 1]” the figure was 47.1; with “GCNRSYWFRQWFCKQDSDCLAGCVCGPNGFCG (also: bicyclic or more (positions not given here)) [Lgr5ECD-Fc EET I-II 22]”, 4.7.
With “GCQQGYWYWQWFCKQDSDCLAGCVCGPNGFCG (also: bicyclic or more (positions not given here)) [Lgr5ECD-Fc EET I-II 7]”, the S/N is 33.7.
Same read-out and setting: as for “GCRHGYWFHYWFCKQDSDCLAGCVCGPNGFCG (also: bicyclic or more (positions not given here)) [Lgr5ECD-Fc EET I-II 23]”, the figure is 3.9; as for “GCSYWWRVWFCKQDSDCLAGCVCGPNGFCG (also: bicyclic or more (positions not given here)) [Lgr5ECD-Fc EET I-II 19]”, 7.2.
Consider “GCTSNFWYKQWFCKQDSDCLAGCVCGPNGFCG (also: bicyclic or more (positions not given here)) [Lgr5ECD-Fc EET I-II 5]”, for which the S/N is listed as 39.0.
On to “GCWVNFWMCKQDSDCLAGCVCRVLDVCG (also: bicyclic or more (positions not given here)) [Lgr5ECD-Fc EET I-II 26]”, for which the S/N is reported as 11.7.
On the same count and under the same terms, as for “GCYHGYWYITWFCKQDSDCLAGCVCSQDEQCG (also: bicyclic or more (positions not given here)) [Lgr5ECD-Fc EET I-II 21]”, the figure is 5.1.
For “GPAHSTYGRCGGIDYYGPTVCASGTTCLVLWPALSWCLPRSF (also: bicyclic or more (positions not given here)) [Lgr5ECD-Fc CBD 17]”, the S/N is reported as 26.2.
Turning to “GPTQSAFGPCGGIGYSGHTVCASGTTCQVLSPNVSHCLPGAS (also: bicyclic or more (positions not given here)) [Lgr5ECD-Fc CBD 16]”, the S/N is recorded as 6.6.
Take “GPTQSAFGPCGGIGYSGPTVCASGTTCQVLSPDVSQCLPGAS (also: bicyclic or more (positions not given here)) [Lgr5ECD-Fc CBD 6]”: the S/N was determined as 36.0.
Regarding “GPTQSAFGPCGGIGYSGPTVCASGTTCQVLSPDVSRCLPGAS (also: bicyclic or more (positions not given here)) [Lgr5ECD-Fc CBD 8]”, the S/N worked out at 30.3.
For the compound “GPTQSAYGQCGGIGYSGPTVCASGTTCQVLWPQVSWCLPGAS (also: bicyclic or more (positions not given here)) [Lgr5ECD-Fc CBD 13]”, the S/N came out at 14.2.
Still for that read-out and setting: with “GPTQSHYGLCGGIGYSGPTVCASGTTCQVLSPEFSQCLPGAS (also: bicyclic or more (positions not given here)) [Lgr5ECD-Fc CBD 10]” the figure was 23.6; with “GPTQSLFGMCGGIGYSGPTVCASGTTCQVLDPTTSQCLPGAS (also: bicyclic or more (positions not given here)) [Lgr5ECD-Fc CBD 2]”, 42.7; with “GPTQSOYGMCGGIGYSGPTVCASGTTCQVLDPTTSQCLPGAS (bicyclic or more) [Lgr5ECD-Fc CBD 18]”, 34.5.
Consider “GPTQSPGGICGGIGYSGPTVCASGTTCQVLSPEYSQCLPGAS (also: bicyclic or more (positions not given here)) [Lgr5ECD-Fc CBD 7]”, for which the S/N is reported as 34.9.
As for “GPTQSQFGMCGGIGYSGPTVCASGTTCQVLDPTTSQCLPGAS (also: bicyclic or more (positions not given here)) [Lgr5ECD-Fc CBD 4]”, the S/N was 40.8.
As to “GPTQSQYGICGGIGYSGPTVCASGTTCQVLSPDWSQCLPGAS (also: bicyclic or more (positions not given here)) [Lgr5ECD-Fc CBD 9]”, the S/N is 23.7.
In the case of “GPTQSQYGICGGIGYSGPTVCASGTTCQVLSPEFSQCLPGAS (also: bicyclic or more (positions not given here)) [Lgr5ECD-Fc CBD 14]”, the S/N worked out at 12.1.
“GPTQSQYGLCGGIGYSGPTVCASGTTCQVLDPTTSQCLPGAS (also: bicyclic or more (positions not given here)) [Lgr5ECD-Fc CBD 15]”: the S/N is listed as 8.9.
On the same count and under the same terms, as for “GPTQSTWGQCGGIGYSGPTVCASGTTCQVLWPTLSWCLPGAS (also: bicyclic or more (positions not given here)) [Lgr5ECD-Fc CBD 5]”, the figure is 38.3.
In the case of “GPTQSTYGQCGGIGYSGPTVCASGTTCQVLWPALSWCLPGAS (also: bicyclic or more (positions not given here)) [Lgr5ECD-Fc CBD 1]”, the S/N was 43.0.
For “GPTQSVYGICGGIGYSGPTVCASGTTCQVLDPTTSQCLPGAS (also: bicyclic or more (positions not given here)) [Lgr5ECD-Fc CBD 12]”, the S/N is on record as 18.9.
As for “GPTQSVYGICGGIGYSGPTVCASGTTCQVLSPEFSQCLPGAS (also: bicyclic or more (positions not given here)) [Lgr5ECD-Fc CBD 11]”, the S/N worked out at 23.1.
As to “GPTQSVYGMCGGIGYSGPTVCASGTTCQVLDPTTSQCLPGAS (also: bicyclic or more (positions not given here)) [Lgr5ECD-Fc CBD 3]”, the S/N turned out to be 41.0.

The subject of another assay is HtrA1. The assay is classed as binding, human.
Conditions: not given
As to `CC[C@H](C)[C@@H]1NC(=O)[C@H](CO)NC(=O)[C@@H]2CSSC[C@@H]3NC(=O)[C@H](CO)NC(=O)CNC(=O)[C@H]([C@@H](C)O)NC(=O)[C@H](CSSC[C@H](N)C(=O)N[C@@H](CCCCN)C(=O)NCC(=O)N[C@@H](CCCCN)C(=O)NCC(=O)N[C@@H](C)C(=O)N[C@@H](CCCCN)C(=O)N2)NC(=O)[C@H](CSSC[C@@H](C(=O)O)NC(=O)[C@H](CCCCN)NC(=O)CNC(=O)[C@H](CO)NC(=O)[C@H](CCCNC(=N)N)NC3=O)NC(=O)[C@H](C(C)C)NC(=O)[C@H](CCCCN)NC(=O)[C@H](Cc2c[nH]c3ccccc23)NC(=O)[C@@H]2CCCN2C(=O)[C@H](Cc2ccc(O)cc2)NC(=O)[C@H](C(C)C)NC(=O)[C@H](CO)NC(=O)[C@H](Cc2c[nH]c3ccccc23)NC(=O)[C@H](CCC(N)=O)NC1=O` [HtrA1_CnTx83], the S/N came to 16.1.

The assay is the same for the next values; noted with them: ratio of signal for target protein over BSA background.
For “AFDCLGQCGRCDFHKLQCVAWLMYSFVRPYCNSSCTR (also: bicyclic or more (positions not given here)) [HtrA1 AVR9 53]”, the S/N worked out at 7.3.
As to “AFDCLGQCGRCDFHKLQCVFWHWYYCNSSCTR (also: bicyclic or more (positions not given here)) [HtrA1 AVR9 84]”, the S/N was 8.5.
